Source: patent US12343347B2 (Biohaven Pharmaceutical Holding Company Ltd., priority 2012, dated 2025)

Columns and labels:
[1] = test system: amyotrophic lateral sclerosis (ALS) patients; conditions: after 1.5 years of treatment; cited from earlier work
[2] = Plasma stability in fresh mouse plasma; format: in vitro ADME; conditions: 1 uM, 37° C.
Protocol: (§1) Plasma Stability: Assessment of plasma stability was carried out by individual incubations of drug candidates in fresh mouse or human control plasma at a concentration of 1 uM for 1 hour at 37° C. After which, the samples were de-proteinized by addition of 2 volumes of acetonitrile containing 0.1% formic acid and internal standard, vortex mixed for 2 minutes and centrifuged at 4000 rpm for 10 minutes to pellet precipitated protein. The resulting supernatant containing the drug candidates was diluted 5-fold with water containing 0.1% formic acid and submitted to LC-MS/MS analysis. All determinations were done in triplicate. […]
(§2) LC-MS/MS Analysis: An aliquot from each incubation was analyzed by LC-MS/MS with SRM detection in the positive ionization mode using an ABSciex API 5500 QTrap Mass Spectrometer interfaced via the ABSciex Turbo V IonSpray source (ESI) to an Eksigent ExpressHT LC system. […] A fast gradient, from 15 to 85% organic in 2.5 minutes, with run time of 5.0 minutes, and flow rate of 50 uL/min was utilized. Peak areas were integrated using MultiQuant v2.0 software from ABSciex.

[3] = Plasma stability in fresh human plasma; format: in vitro ADME; conditions: 1 uM, 37° C.
Protocol: as §1, §2

[4] = Stability in Simulated Gastric Fluid (SGF); format: in vitro ADME; conditions: SGF:acetonitrile 9:1, 0.01 mg/mL, 37° C.
Protocol: (§3) Stability in Simulated Gastric Fluid (SGF) and Simulated Intestinal Fluid (SIF). Procedure from Baudy et. al. (J. Med. Chem. 2009, 52, 771-778) used. The physiological stability of pro-drugs was determined by examining the stability of the compound in SGF, and SIF at 37° C. The compounds were prepared in a 9:1 mixture of the appropriate test component (SGF, SIF) and acetonitrile to a final concentration of 0.01 mg/mL. The samples were thoroughly mixed and maintained at 37° C. Each sample was injected consecutively onto an Agilent 1100 system (Luna C18, 3 μm, 50 mm×3 mm; 1 mL/min; mobile phase of 0.1% trifluoroacetic acid in water/0.1% trifluoroacetic acid in acetonitrile) after a 3 h period. The percent remaining of pro-drug was calculated by comparing the area of pro-drug compound versus riluzole generated. The identities of the parent compounds and conversion products were confirmed by LC/MS.

[5] = Metabolic stability in pooled human liver microsomes; format: in vitro ADME; conditions: human liver microsomes 0.5 mg/mL, 1 uM, NADPH, 37° C.
Protocol: (§4) Metabolic Stability: In vitro metabolic stability was determined in pooled mouse or human liver microsomes (BD Gentest) at a protein concentration of 0.5 mg/mL in reaction buffer (100 mM KH2PO4, pH 7.4 and 12 mM MgCl2). Each drug candidate was added to a final concentration of 1 uM. This mixture was pre-warmed to 37° C. for 10 minutes prior to starting the reaction with the addition of β-Nicotinamide adenine dinucleotide 2′-phosphate reduced (NADPH) to a final concentration of 1 mM. A parallel incubation lacking NADPH served as the control. After incubation for 30 min at 37° C., the reactions were quenched by the addition of acetonitrile containing 0.1% formic acid and internal standard, vortex mixed for 2 minutes and centrifuged at 4000 rpm for 10 minutes to pellet the precipitated protein. The resulting supernatant containing the drug candidate and its potential metabolites was diluted 5-fold with water containing 0.1% formic acid and submitted to LC-MS/MS analysis. […]
as §2

[6] = Stability in Simulated Intestinal Fluid (SIF); format: in vitro ADME; conditions: SIF:acetonitrile 9:1, 0.01 mg/mL, 37° C.
Protocol: as §3

[7] = Metabolic stability in pooled mouse liver microsomes; format: in vitro ADME; conditions: mouse liver microsomes 0.5 mg/mL, 1 uM, NADPH, 37° C.
Protocol: as §4, §2

Compound | increase of lifespan [1] | Plasma Stability mouse (1 hour), percent of pro-drug metabolized to riluzole [2] | Plasma Stability Human (1 hour), percent of pro-drug metabolized to riluzole [3] | SGF (3 hours), percent of pro-drug metabolized to riluzole [4] | Metabolic Stability human (30 minutes), percent of pro-drug metabolized to riluzole [5] | SIF (3 hours), percent of pro-drug metabolized to riluzole [6] | Metabolic Stability mouse (30 minutes), percent of pro-drug metabolized to riluzole [7]
Nc1nc2ccc(OC(F)(F)F)cc2s1 [riluzole, 6-(trifluoromethoxy)-1,3-benzothiazol-2-amine] | 2-3 months |  |  |  |  |  | 
C[C@H](N)C(=O)Nc1nc2ccc(OC(F)(F)F)cc2s1 [Cpd 7, (S)-2-Amino-N-(6-trifluoromethoxy-benzothiazol-2-yl)-propionamide] |  | 28% | 10% | 0% | 0% | 50% | 1%
CN(C)CCOC(=O)Nc1nc2ccc(OC(F)(F)F)cc2s1 [Cpd 18, (6-Trifluoromethoxy-benzothiazol-2-yl)-carbamic acid 2-dimethylamino-ethyl ester] |  | 3% | 0% | 0% | 10% | 0% | 13%
N[C@@H](COCc1ccccc1)C(=O)Nc1nc2ccc(OC(F)(F)F)cc2s1 [Cpd 10, (S)-2-Amino-3-benzyloxy-N-(6-trifluoromethoxy-benzothiazol-2-yl)-propionamide] |  | 52% | 9% | 0% | 15% | 0% | 0%
COC(=O)Nc1nc2ccc(OC(F)(F)F)cc2s1 [Cpd 12, (6-Trifluoromethoxy-benzothiazol-2-yl)-carbamic acid methyl ester] |  | 0% | 15% | 0% | 0% | 0% | 10%
CNCCCCC(=O)Nc1nc2ccc(OC(F)(F)F)cc2s1 [Cpd 25, 5-Methylamino-pentanoic acid (6-trifluoromethoxy-benzothiazol-2-yl)-amide] |  | 0% | 0% | 0% | 0% | 0% | 78%
O=C(CCC(=O)Nc1nc2ccc(OC(F)(F)F)cc2s1)NCc1cccnc1 [Cpd 23, N-Pyridin-3-ylmethyl-N′-(6-trifluoromethoxy-benzothiazol-2-yl)-succinamide] |  | 26% | 0% | 0% | 4% | 10% | 0%
CC(C)[C@H](N)C(=O)Nc1nc2ccc(OC(F)(F)F)cc2s1 [Cpd 11, (S)-2-Amino-3-methyl-N-(6-trifluoromethoxy-benzothiazol-2-yl)-butyramide] |  | 45% | 11% | 0% | 6% | 40% | 40%
CCCCOC(=O)Nc1nc2ccc(OC(F)(F)F)cc2s1 [Cpd 15, (6-Trifluoromethoxy-benzothiazol-2-yl)-carbamic acid butyl ester] |  | 9% | 0% | 0% | 13% | 0% | 53%
COC(=O)CCC(=O)Nc1nc2ccc(OC(F)(F)F)cc2s1 [Cpd 21, N-(6-Trifluoromethoxy-benzothiazol-2-yl)-succinamic acid methyl ester] |  | 99% | 25% | 3% | 34% | 0% | 77%
